Source: PMC5569935, “Pleiotropic Effects of Biguanides on Mitochondrial Reactive Oxygen Species Production” (Oxidative Medicine and Cellular Longevity, 2017)

Assays:
[1] = biological target: T1, succinate dehydrogenase (SDH) (Rattus norvegicus, UniProt P21913+Q641Z9+Q6PCT8+Q920L2); test: SDH activity (succinate:CoQ1 oxidoreductase / succinate respiration) in BAT mitochondria; format: biochemical
T1 construct: from tissue; host or cells: mitochondria isolated from rat interscapular brown adipose tissue
T1 sequence (Q920L2 35-656): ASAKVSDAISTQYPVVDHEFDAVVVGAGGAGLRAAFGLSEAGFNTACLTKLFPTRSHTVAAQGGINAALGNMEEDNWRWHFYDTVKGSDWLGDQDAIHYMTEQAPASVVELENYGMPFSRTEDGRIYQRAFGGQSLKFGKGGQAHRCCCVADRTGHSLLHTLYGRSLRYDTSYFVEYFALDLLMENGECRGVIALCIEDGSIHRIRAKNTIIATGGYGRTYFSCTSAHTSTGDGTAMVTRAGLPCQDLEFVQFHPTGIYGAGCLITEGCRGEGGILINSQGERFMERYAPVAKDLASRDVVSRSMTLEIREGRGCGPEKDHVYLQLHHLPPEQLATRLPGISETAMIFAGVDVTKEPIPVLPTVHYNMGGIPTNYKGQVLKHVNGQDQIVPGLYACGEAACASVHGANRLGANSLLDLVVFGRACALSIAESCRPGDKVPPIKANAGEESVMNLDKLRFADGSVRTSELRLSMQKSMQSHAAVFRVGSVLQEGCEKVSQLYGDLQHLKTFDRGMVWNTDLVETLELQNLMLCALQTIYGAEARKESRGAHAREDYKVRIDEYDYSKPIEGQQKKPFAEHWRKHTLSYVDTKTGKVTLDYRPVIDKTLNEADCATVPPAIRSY
T1 sequence (P21913 31-282): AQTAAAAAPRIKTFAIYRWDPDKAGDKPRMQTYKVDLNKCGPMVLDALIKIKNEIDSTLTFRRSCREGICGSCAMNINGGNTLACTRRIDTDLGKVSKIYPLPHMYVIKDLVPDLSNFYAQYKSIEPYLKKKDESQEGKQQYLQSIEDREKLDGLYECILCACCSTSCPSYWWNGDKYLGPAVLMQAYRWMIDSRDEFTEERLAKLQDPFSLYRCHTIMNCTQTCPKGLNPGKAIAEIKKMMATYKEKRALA
T1 sequence (Q641Z9 30-169 limits assumed): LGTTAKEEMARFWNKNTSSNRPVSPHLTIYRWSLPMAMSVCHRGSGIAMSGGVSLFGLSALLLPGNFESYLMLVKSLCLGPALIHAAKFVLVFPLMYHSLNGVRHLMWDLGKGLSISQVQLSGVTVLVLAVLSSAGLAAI
T1 sequence (Q6PCT8 57-159): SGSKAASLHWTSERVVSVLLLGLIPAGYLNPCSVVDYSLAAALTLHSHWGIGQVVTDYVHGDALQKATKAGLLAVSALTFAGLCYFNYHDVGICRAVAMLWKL
Procedure: We used interscapular brown adipose tissue (BAT) of four-week-old Wistar rats kept at 22°C under 12 h/12 h light/dark cycle on a standard diet and water supply ad libitum. All animal works were approved by the institutional ethics committee and were in accordance with the EU Directive 2010/63/EU for animal experiments. Mitochondria were isolated in STE medium (250 mM sucrose, 10 mM Tris–HCl, 1 mM EDTA, pH 7.4) and supplemented with BSA (10 mg/mL) by differential centrifugation. Quality of isolation was routinely checked by oxygraph, and fresh mitochondria were used for measurements of oxygen consumption and hydrogen peroxide production. […]
(§1) Activities of mitochondrial dehydrogenases were determined spectrophotometrically as NADH oxidoreductases (NDH, monitored at 340 nm, ε340 = 6.22 mM^−1·cm^−1) or CoQ1 oxidoreductases (SDH and mGPDH, monitored at 275 nm, ε275 = 13.6 mM^−1·cm^−1). […] The reaction was started by adding 100 μM NADH, 25 mM glycerophosphate (GP), or 25 mM succinate, respectively, and after 5–10 minutes, changes of absorbance were monitored at 30°C. Enzyme activities were expressed as pmol/s/mg protein.
Oxygen consumption was measured at 30°C as described before using Oxygraph-2k (Oroboros, Austria). […]

[2] = system: H2O2 (ROS) production of BAT mitochondria; test: Fluorometric detection of hydrogen peroxide production (Amplex UltraRed) in fresh BAT mitochondria; format: biochemical, rat; settings: for ROS production on titration, all substrates tested: metformin 0–200 mM or phenformin 0–60 mM, pattern highly similar for all substrates
Procedure: (§2) We used interscapular brown adipose tissue (BAT) of four-week-old Wistar rats kept at 22°C under 12 h/12 h light/dark cycle on a standard diet and water supply ad libitum. All animal works were approved by the institutional ethics committee and were in accordance with the EU Directive 2010/63/EU for animal experiments. Mitochondria were isolated in STE medium (250 mM sucrose, 10 mM Tris–HCl, 1 mM EDTA, pH 7.4) and supplemented with BSA (10 mg/mL) by differential centrifugation. Quality of isolation was routinely checked by oxygraph, and fresh mitochondria were used for measurements of oxygen consumption and hydrogen peroxide production. Subsequently, frozen-thawed mitochondria were used for determination of enzymatic activities; as in such preparations, the integrity of mitochondrial membrane is disrupted and NADH has therefore access to the oxidation site of NDH. Also, freezing/thawing ensures that the membrane potential is not maintained.
Hydrogen peroxide production was determined fluorometrically by measuring oxidation of Amplex UltraRed (Thermo Fisher) essentially as before. Fluorescence of the Amplex UltraRed oxidation product was measured at 37°C using Tecan Infinite M200 multiwell fluorometer. Excitation/emission wavelengths were 544 nm (bandwidth 15 nm)/590 nm (bandwidth 30 nm). The assay was performed with 10 μg of mitochondrial protein in KCl-based medium (120 mM KCl, 3 mM HEPES, 5 mM KH2PO4, 3 mM MgSO4, 1 mM EGTA, 3 mg/mL BSA, pH 7.2) supplemented either with 10 mM pyruvate plus 2 mM malate, 10 mM succinate, or 10 mM GP. Amplex UltraRed was used at the final concentration of 50 μM with horseradish peroxidase (HRP) at 1 U/mL. Fluorescence signal from the well containing all substrates and inhibitors, but not mitochondria, was subtracted as a background for every experimental condition used. Background, caused mostly by autoxidation of the dye or nonenzymatic effect of inhibitors on apparent ROS production, varied between conditions from 0 to 1 pmol/s/mg and was uniform across respective titration points. Signal was calibrated using H2O2 at the final concentration of 0–5 μM, and H2O2 stock concentration was routinely checked by measuring its absorption at 240 nm.

[3] = biological target: T2, mitochondrial glycerophosphate dehydrogenase (mGPDH) (Rattus norvegicus, UniProt P35571); test: mGPDH activity (glycerophosphate:CoQ1 oxidoreductase) in BAT mitochondria; format: biochemical
T2 construct: from tissue; host or cells: mitochondria isolated from rat interscapular brown adipose tissue
T2 sequence (P35571 43-727): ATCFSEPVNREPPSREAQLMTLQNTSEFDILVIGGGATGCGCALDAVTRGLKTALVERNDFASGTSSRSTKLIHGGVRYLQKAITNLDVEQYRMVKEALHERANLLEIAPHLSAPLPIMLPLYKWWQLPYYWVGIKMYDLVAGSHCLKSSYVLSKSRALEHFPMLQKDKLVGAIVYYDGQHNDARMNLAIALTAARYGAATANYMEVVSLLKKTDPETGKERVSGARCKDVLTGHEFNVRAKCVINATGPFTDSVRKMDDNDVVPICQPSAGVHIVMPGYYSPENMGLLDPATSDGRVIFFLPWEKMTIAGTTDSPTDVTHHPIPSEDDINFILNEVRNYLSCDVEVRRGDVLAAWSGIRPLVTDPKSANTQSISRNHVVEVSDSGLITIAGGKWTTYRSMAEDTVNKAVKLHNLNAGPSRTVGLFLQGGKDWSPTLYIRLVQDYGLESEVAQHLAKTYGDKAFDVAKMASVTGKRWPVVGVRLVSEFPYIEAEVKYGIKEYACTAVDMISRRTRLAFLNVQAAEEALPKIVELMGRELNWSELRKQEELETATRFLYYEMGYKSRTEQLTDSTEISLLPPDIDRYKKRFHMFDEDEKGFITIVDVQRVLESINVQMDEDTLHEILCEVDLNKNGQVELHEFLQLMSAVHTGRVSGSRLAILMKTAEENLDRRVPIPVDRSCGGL
Procedure: as §2, with “Also, freezing/thawing ensures that the membrane potential is not maintained.” left out
as §1

[4] = biological target: respiratory chain dehydrogenases NDH, SDH, and mGPDH; test: Enzyme activity assays of mitochondrial dehydrogenases in frozen-thawed BAT mitochondria (spectrophotometry); format: biochemical, rat; settings: isolated BAT mitochondria, range over all three enzymes, read-out: IC50, inhibition of respiratory chain dehydrogenase enzyme activities (NDH, SDH, mGPDH)
Procedure: as §2, with “Also, freezing/thawing ensures that the membrane potential is not maintained.” left out
as §1

[5] = system: respiration of BAT mitochondria (pyruvate plus malate, succinate, glycerophosphate); test: Polarographic oxygen consumption of isolated BAT mitochondria with substrates of NDH, SDH and mGPDH; format: biochemical, rat; settings: at the same concentrations as enzyme inhibition (IC50 80 to 180 mM)
Procedure: as §2
(§3) Oxygen consumption was measured at 30°C as described before using Oxygraph-2k (Oroboros, Austria). Measurements were performed in 2 mL of KCl medium (80 mM KCl, 10 mM Tris–HCl, 3 mM MgCl2, 1 mM EDTA, 5 mM K-Pi, pH 7.4) using 15–60 μg protein/mL of freshly isolated mitochondria. For measurements, 10 mM pyruvate plus 2 mM malate, 10 mM succinate, or 10 mM GP, respectively, were used. The oxygen consumption was expressed in pmol oxygen/s/mg protein.

[6] = system: NADH dehydrogenase (complex I, NDH); test: NDH enzyme activity (NADH oxidoreductase) in BAT mitochondria; format: biochemical, rat
Procedure: as §2, with “Also, freezing/thawing ensures that the membrane potential is not maintained.” left out
as §1

[7] = reported values; cited from earlier work
[8] = system: treated patients; settings: cited from earlier work
[9] = system: pyruvate plus malate-supported oxygen consumption (NDH); test: Pyruvate plus malate-supported oxygen consumption of BAT mitochondria; format: biochemical, rat
Procedure: as §2, §3

COc1[nH]c(=O)c(C(=O)[C@@H](C)C[C@H](C)[C@@H](Cl)CCl)c(O)c1OC [atpenin A5]
Concentration of complete inhibition of SDH ([1]; succinate as a substrate): 20 nM | ROS production with low levels of succinate ([2]; 0.4 mM succinate, 0.5 μM atpenin A5): pronounced increase in ROS production

O=C(O)CCC(=O)Nc1ccc(-c2nc3ccccc3[nH]2)cc1 [iGP-1]
IC50 ([1]; enzyme activity and oxygen consumption, 10 mM succinate (Figures 4(b) and 4(d)), read-out: IC50, nonspecific action on SDH): ~80 µM | Concentration at which activity of mGPDH was abolished [3]: 50 µM | GP-dependent ROS production ([2]; 10 mM glycerophosphate, 100 μM iGP-1): inhibited

CN(C)C(=N)N=C(N)N [metformin, dimethyl biguanide]
IC50 [4]: > 80000 µM | Effect on respiration with pyruvate and malate, succinate and glycerophosphate [5]: inhibited respiration | Sensitivity of NDH activity to inhibitory action relative to SDH and mGPDH ([6]; metformin titration 0–200 mM, 100 μM NADH): most sensitive | ROS production on titration, all substrates tested [2]: dose-dependent increase in ROS production | Concentration inside tumors [7]: 1000 to 10000 nM

[H]/N=C(/N)N/C(=N/[H])NCCc1ccccc1 [phenformin]
ROS production on titration, all substrates tested [2]: dose-dependent increase in ROS production | Adverse effect leading to discontinued use [8]: induction of lactic acidosis

C=C(C)[C@H]1Cc2c(ccc3c2O[C@@H]2COc4cc(OC)c(OC)cc4[C@@H]2C3=O)O1 [rotenone]
Concentration of complete inhibition of complex I enzyme activity ([6]; BAT mitochondria): 500 nM | Concentration of complete inhibition of pyruvate plus malate-supported oxygen consumption [9]: 500 nM | Rate of H2O2 production with NADH-linked substrates ([2]; 10 mM pyruvate and 2 mM malate, 1 μM rotenone): increased the rate of H2O2 production
